The source of these data is patent publication US11192890B2, “FGFR kinase inhibitors and pharmaceutical uses” (AUCKLAND UNISERVICES LIMITED, priority 2017, dated 2021).

Like-named read-outs stand apart in the source and are kept apart here.

The target in series [1] is T1, FGFR2 (Homo sapiens, UniProt P21802).
T1 construct: purchased Invitrogen
Description: Isolated enzyme FRET-based Z-Lyte kinase inhibition assay. The series is classed as biochemical. The following applies: means from 3 independent experiments; read-out: Isolate Enzyme Inhibition IC50, FGFR2. Here is the method: (§1) FGFR1-4 and the Z-Lyte Kinase Assay Kit were purchased from Invitrogen. The concentration gradients from 5.1×10^−11 to 1.0×10^−6 mol/L were used for all the test compounds. The experiments were performed according to the instructions of the manufacturer.
(§2) FGFR1-4 isolated enzyme activity was determined using the FRET-based Z-Lyte kinase inhibition assay. The data are the means from 3 independent experiments.

Series [2] deals with T2, FGFR1 (Homo sapiens, UniProt P11362).
T2 construct: purchased Invitrogen
T2 sequence (P11362 22-822): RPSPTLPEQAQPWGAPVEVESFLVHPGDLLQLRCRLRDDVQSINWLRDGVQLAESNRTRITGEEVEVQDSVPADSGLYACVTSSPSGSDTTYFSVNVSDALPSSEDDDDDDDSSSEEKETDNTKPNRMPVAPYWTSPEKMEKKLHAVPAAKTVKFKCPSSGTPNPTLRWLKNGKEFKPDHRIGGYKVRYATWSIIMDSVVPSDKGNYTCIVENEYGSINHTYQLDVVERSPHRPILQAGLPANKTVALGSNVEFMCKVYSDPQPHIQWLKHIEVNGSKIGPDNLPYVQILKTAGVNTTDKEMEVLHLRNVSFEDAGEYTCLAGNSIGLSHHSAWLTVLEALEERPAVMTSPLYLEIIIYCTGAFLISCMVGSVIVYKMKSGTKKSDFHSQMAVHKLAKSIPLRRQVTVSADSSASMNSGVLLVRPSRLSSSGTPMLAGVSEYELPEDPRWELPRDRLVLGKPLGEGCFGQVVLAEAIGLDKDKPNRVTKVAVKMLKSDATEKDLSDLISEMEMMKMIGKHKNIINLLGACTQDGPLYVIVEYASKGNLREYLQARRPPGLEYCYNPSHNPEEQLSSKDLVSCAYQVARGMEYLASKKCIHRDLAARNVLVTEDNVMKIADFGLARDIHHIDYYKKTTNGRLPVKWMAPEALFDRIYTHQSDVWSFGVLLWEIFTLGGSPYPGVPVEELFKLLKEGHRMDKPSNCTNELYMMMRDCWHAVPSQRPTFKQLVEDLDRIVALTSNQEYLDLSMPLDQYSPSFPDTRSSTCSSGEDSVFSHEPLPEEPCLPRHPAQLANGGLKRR
The description is as above. The following applies: means from 3 independent experiments; read-out: Isolate Enzyme Inhibition IC50, FGFR1. In kind it is biochemical. The procedure: as §1, §2

The target in series [3] is T3, FGFR3 (Homo sapiens, UniProt P22607).
T3 construct: purchased Invitrogen
T3 sequence (P22607 23-806): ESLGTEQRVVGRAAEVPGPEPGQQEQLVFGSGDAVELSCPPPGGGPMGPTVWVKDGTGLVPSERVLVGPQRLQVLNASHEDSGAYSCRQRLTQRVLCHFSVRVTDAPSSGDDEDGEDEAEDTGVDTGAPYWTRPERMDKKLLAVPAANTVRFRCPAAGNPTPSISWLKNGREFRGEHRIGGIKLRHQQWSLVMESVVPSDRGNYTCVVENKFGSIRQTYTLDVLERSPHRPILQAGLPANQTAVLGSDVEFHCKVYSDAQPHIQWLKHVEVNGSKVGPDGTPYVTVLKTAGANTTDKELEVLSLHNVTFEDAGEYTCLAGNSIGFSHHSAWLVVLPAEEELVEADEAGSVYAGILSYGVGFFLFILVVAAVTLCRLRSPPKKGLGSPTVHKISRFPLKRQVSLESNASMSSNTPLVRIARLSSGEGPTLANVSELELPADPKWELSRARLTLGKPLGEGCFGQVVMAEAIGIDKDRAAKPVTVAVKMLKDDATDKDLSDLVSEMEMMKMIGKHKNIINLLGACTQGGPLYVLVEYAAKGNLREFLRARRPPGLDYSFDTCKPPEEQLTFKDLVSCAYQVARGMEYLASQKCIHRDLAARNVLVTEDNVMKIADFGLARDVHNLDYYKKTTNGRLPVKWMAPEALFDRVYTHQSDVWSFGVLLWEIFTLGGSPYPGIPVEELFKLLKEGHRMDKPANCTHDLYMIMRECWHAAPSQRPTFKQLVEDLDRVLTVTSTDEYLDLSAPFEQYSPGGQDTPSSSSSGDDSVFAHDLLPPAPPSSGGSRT
The description is as above. The series is classed as biochemical. As to conditions: means from 3 independent experiments; read-out: Isolate Enzyme Inhibition IC50, FGFR3. The procedure: as §1, §2

For series [4], the system named is FGFR3 in SW780 cells (phospho-ERK1/2). Description: Drug washout Western blot assay, SW780 cells. The series is classed as cell-based. As to conditions: SW780; 30 min exposure, 100 nM, with and without washout. On the technique in general: Immunoblotting shows a protein as a band on a membrane.
Series [5] relates to SUM52 cells. Description: Oxic and anoxic anti-proliferative activity of the prodrugs. The following applies: for Hypoxic Cytotoxicity Ratio (HCR), SUM52: ratio of oxic and anoxic IC50.
The mark [6] stands for this setting: read-out: Cellular Anti-proliferative IC50, SUM52, Anoxic, 4 hours of anoxia, remainder of assay oxic.
Setting [7] is: read-out: Cellular Anti-proliferative IC50, SUM52, Oxic, oxic conditions.

T1 sequence (P21802 22-821): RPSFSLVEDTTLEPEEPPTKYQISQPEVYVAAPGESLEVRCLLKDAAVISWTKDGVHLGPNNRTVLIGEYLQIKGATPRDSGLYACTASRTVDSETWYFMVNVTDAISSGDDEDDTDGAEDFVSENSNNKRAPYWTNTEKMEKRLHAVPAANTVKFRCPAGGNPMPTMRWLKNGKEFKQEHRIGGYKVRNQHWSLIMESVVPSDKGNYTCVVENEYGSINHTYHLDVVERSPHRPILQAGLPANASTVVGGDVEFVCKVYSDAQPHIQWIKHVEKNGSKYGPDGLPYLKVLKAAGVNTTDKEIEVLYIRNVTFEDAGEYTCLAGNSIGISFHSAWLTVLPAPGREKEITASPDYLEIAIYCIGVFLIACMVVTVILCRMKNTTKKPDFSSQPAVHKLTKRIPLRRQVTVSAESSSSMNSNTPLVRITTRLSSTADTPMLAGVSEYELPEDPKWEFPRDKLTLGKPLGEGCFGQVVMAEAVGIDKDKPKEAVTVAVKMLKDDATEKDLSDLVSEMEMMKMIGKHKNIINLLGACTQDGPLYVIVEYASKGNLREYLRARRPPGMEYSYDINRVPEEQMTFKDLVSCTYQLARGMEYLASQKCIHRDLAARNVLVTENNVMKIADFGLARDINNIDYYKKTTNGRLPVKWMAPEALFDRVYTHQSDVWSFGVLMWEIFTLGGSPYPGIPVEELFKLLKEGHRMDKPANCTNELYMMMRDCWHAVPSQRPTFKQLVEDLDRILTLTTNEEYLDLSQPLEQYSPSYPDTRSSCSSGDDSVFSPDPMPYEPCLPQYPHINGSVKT

A word on the IC50: it is the point on the concentration scale where inhibition reaches its midpoint. For `CNc1ncc2cc(-c3c(Cl)c(OC)cc(OC)c3Cl)c(=O)n(C3CCN(C(=O)/C=C/CN(C)C)CC3)c2n1` [Compound 132, (E)-6-(2,6-dichloro-3,5-dimethoxyphenyl)-8-(1-(4-(dimethylamino)but-2-enoyl)piperidin-4-yl)-2-(methylamino)pyrido[2,3-d]pyrimidin-7(8H)-one], the figures for the IC50 in series [1], in series [2] and in series [3] were 1 nM, 0.7 nM and 4.9 nM, respectively.
`C=CC(=O)N1CCC(N2C(=O)N(c3c(Cl)c(OC)cc(OC)c3Cl)Cc3cnc(NC)nc32)CC1` [Compound 156, 1-(1-acryloylpiperidin-4-yl)-3-(2,6-dichloro-3,5-dimethoxyphenyl)-7-(methylamino)-3,4-dihydropyrimido[4,5-d]pyrimidin-2(1H)-one]: the “reversible or irreversible inhibition of FGFR3 in cells” value in series [4] is “potent reversible inhibitors”.
Take `COc1cc(OC)c(Cl)c(-c2cc3cnc(Nc4ccc(F)cc4)nc3n(C3CCN(C(=O)/C=C/CN(C)C)CC3)c2=O)c1Cl` [Compound 139, (E)-6-(2,6-dichloro-3,5-dimethoxyphenyl)-8-(1-(4-(dimethylamino)but-2-enoyl)piperidin-4-yl)-2-((4-fluorophenyl)amino)pyrido[2,3-d]pyrimidin-7(8H)-one]: the IC50 in series [1] was 1.1 nM; in series [2], 0.3 nM; in series [3], 6 nM.
For `COc1cccc(Nc2ncc3cc(-c4c(Cl)c(OC)cc(OC)c4Cl)c(=O)n(C4CCN(C(=O)/C=C/CN(C)C)CC4)c3n2)c1` [Compound 140, (E)-6-(2,6-dichloro-3,5-dimethoxyphenyl)-8-(1-(4-(dimethylamino)but-2-enoyl)piperidin-4-yl)-2-((3-methoxyphenyl)amino)pyrido[2,3-d]pyrimidin-7(8H)-one], the results for the IC50 in series [1], in series [2] and in series [3] were 0.9 nM, 0.7 nM and 4.9 nM, respectively.
Take `COc1cc(OC)c(Br)c(N2Cc3cnc(NC(C)C)nc3N(C3CCN(C(=O)/C=C/C[N+](C)(C)Cc4c([N+](=O)[O-])ncn4C)CC3)C2=O)c1Br.[Br-]` [Compound 207, (E)-4-(4-(3-(2,6-dibromo-3,5-dimethoxyphenyl)-7-(isopropylamino)-2-oxo-3,4-dihydropyrimido[4,5-d]pyrimidin-1(2H)-yl)piperidin-1-yl)-N,N-dimethyl-N-((1-methyl-4-nitro-1H-imidazol-5-yl)methyl)-4-oxobut-2-en-1-aminium bromide]: the “Hypoxic Cytotoxicity Ratio (HCR), SUM52” value in series [5] is 53. Further, the results for the IC50 in series [5] (setting [6]) and in series [5] (setting [7]) were 8 nM and 404 nM, respectively.
Turning to `CNc1ncc2cc(-c3c(Cl)c(OC)cc(OC)c3Cl)c(=O)n(Cc3cccc(NC(=O)/C=C/CN(C)C)c3)c2n1` [Compound 143, (E)-N-(3-((6-(2,6-dichloro-3,5-dimethoxyphenyl)-2-(methylamino)-7-oxopyrido[2,3-d]pyrimidin-8(7H)-yl)methyl)phenyl)-4-(dimethylamino)but-2-enamide], the IC50 in series [1] came to 0.9 nM; in series [2], 0.8 nM; in series [3] it was 8 nM.
The matching figures for `COc1cc(OC)c(Cl)c(-c2cc3cnc(NC(C)C)nc3n(Cc3cccc(NC(=O)/C=C/CN(C)C)c3)c2=O)c1Cl` [Compound 145, (E)-N-(3-((6-(2,6-dichloro-3,5-dimethoxyphenyl)-2-(isopropylamino)-7-oxopyrido[2,3-d]pyrimidin-8(7H)-yl)methyl)phenyl)-4-(dimethylamino)but-2-enamide]: 2.5 nM, 1.3 nM and 6.9 nM.
On to `COc1cc(OC)c(Cl)c(-c2cc3cnc(NC4CCCCC4)nc3n(C3CCN(C(=O)/C=C/CN(C)C)CC3)c2=O)c1Cl` [Compound 136, (E)-2-(cyclohexylamino)-6-(2,6-dichloro-3,5-dimethoxyphenyl)-8-(1-(4-(dimethylamino)but-2-enoyl)piperidin-4-yl)pyrido[2,3-d]pyrimidin-7(8H)-one], for which the IC50 in series [1] amounted to 1.3 nM; in series [2] it was 1.1 nM; in series [3], 6.7 nM.
On to `COc1cc(OC)c(Cl)c(-c2cc3cnc(NC4CCOC4)nc3n(C3CCN(C(=O)/C=C/CN(C)C)CC3)c2=O)c1Cl` (stereo not shown) [Compound 134, (E)-6-(2,6-dichloro-3,5-dimethoxyphenyl)-8-(1-(4-(dimethylamino)but-2-enoyl)piperidin-4-yl)-2-((tetrahydrofuran-3-yl)amino)pyrido[2,3-d]pyrimidin-7(8H)-one], for which the IC50 came to 1.6 nM in series [1], 1.1 nM in series [2] and 11 nM in series [3].
On to `COc1ccc(Nc2ncc3c(n2)N(C2CCN(C(=O)/C=C/C[N+](C)(C)Cc4c([N+](=O)[O-])ncn4C)CC2)C(=O)N(c2c(Cl)c(OC)cc(OC)c2Cl)C3)cc1.[Br-]` [Compound 206, (E)-4-(4-(3-(2,6-dichloro-3,5-dimethoxyphenyl)-7-((4-methoxyphenyl)amino)-2-oxo-3,4-dihydropyrimido[4,5-d]pyrimidin-1(2H)-yl)piperidin-1-yl)-N,N-dimethyl-N-((1-methyl-4-nitro-1H-imidazol-5-yl)methyl)-4-oxobut-2-en-1-aminium bromide], for which the “Hypoxic Cytotoxicity Ratio (HCR), SUM52” value in series [5] is 8. Further, the IC50 in series [5] (setting [6]) amounted to 1 nM; in series [5] (setting [7]), 8 nM.
As for `COc1cc(Nc2ncc3cc(-c4c(Cl)c(OC)cc(OC)c4Cl)c(=O)n(C4CCN(C(=O)/C=C/CN(C)C)CC4)c3n2)ccc1F` [Compound 141, (E)-6-(2,6-dichloro-3,5-dimethoxyphenyl)-8-(1-(4-(dimethylamino)but-2-enoyl)piperidin-4-yl)-2-((4-fluoro-3-methoxyphenyl)amino)pyrido[2,3-d]pyrimidin-7(8H)-one], the IC50 was 1.5 nM in series [1], 0.7 nM in series [2] and 5.5 nM in series [3].
With `CNc1ncc2cc(-c3c(Cl)c(OC)cc(OC)c3Cl)c(=O)n(C(C)c3cccc(NC(=O)/C=C/CN(C)C)c3)c2n1` (stereo not shown) [Compound 146, (E)-N-(3-(1-(6-(2,6-dichloro-3,5-dimethoxyphenyl)-2-(methylamino)-7-oxopyrido[2,3-d]pyrimidin-8(7H)-yl)ethyl)phenyl)-4-(dimethylamino)but-2-enamide], the IC50 was found to be 1.2 nM in series [1], 1.2 nM in series [2] and 6.2 nM in series [3].
Turning to `COc1cc(OC)c(Br)c(-c2cc3cnc(NC(C)C)nc3n(C3CCN(C(=O)/C=C/C[N+](C)(C)Cc4c([N+](=O)[O-])ncn4C)CC3)c2=O)c1Br.[Br-]` [Compound 210, (E)-4-(4-(6-(2,6-dibromo-3,5-dimethoxyphenyl)-2-(isopropylamino)-7-oxopyrido[2,3-d]pyrimidin-8(7H)-yl)piperidin-1-yl)-N,N-dimethyl-N-((1-methyl-4-nitro-1H-imidazol-5-yl)methyl)-4-oxobut-2-en-1-aminium bromide], in series [5], the “Hypoxic Cytotoxicity Ratio (HCR), SUM52” value is 9. Moreover, the IC50 in series [5] (setting [6]) is 4 nM; in series [5] (setting [7]) it was 35 nM.
For the compound `CCNc1ncc2cc(-c3c(Cl)c(OC)cc(OC)c3Cl)c(=O)n(Cc3cccc(NC(=O)/C=C/CN(C)C)c3)c2n1` [Compound 144, (E)-N-(3-((6-(2,6-dichloro-3,5-dimethoxyphenyl)-2-(ethylamino)-7-oxopyrido[2,3-d]pyrimidin-8(7H)-yl)methyl)phenyl)-4-(dimethylamino)but-2-enamide], the IC50 was found to be 1.6 nM in series [1], 0.9 nM in series [2] and 6.7 nM in series [3].
Regarding `COc1cc(OC)c(Br)c(-c2cc3cnc(Nc4ccccc4)nc3n(C3CCN(C(=O)/C=C/C[N+](C)(C)Cc4c([N+](=O)[O-])ncn4C)CC3)c2=O)c1Br.[Br-]` [Compound 212, (E)-4-(4-(6-(2,6-dibromo-3,5-dimethoxyphenyl)-7-oxo-2-(phenylamino)pyrido[2,3-d]pyrimidin-8(7H)-yl)piperidin-1-yl)-N,N-dimethyl-N-((1-methyl-4-nitro-1H-imidazol-5-yl)methyl)-4-oxobut-2-en-1-aminium bromide], the “Hypoxic Cytotoxicity Ratio (HCR), SUM52” value in series [5] is 8. For the same compound, the figures for the IC50 in series [5] (setting [6]) and in series [5] (setting [7]) were 2 nM and 13 nM, respectively.
As for `COc1cc(OC)c(Cl)c(-c2cc3cnc(NC4CCOCC4)nc3n(C3CCN(C(=O)/C=C/CN(C)C)CC3)c2=O)c1Cl` [Compound 135, (E)-6-(2,6-dichloro-3,5-dimethoxyphenyl)-8-(1-(4-(dimethylamino)but-2-enoyl)piperidin-4-yl)-2-((tetrahydro-2H-pyran-4-yl)amino)pyrido[2,3-d]pyrimidin-7(8H)-one], the IC50 in series [1] is 1.2 nM; in series [2], 0.9 nM; in series [3], 6.3 nM.
On to `CNc1ncc2c(n1)N(C1CCN(C(=O)/C=C/CN3CCCCC3)CC1)C(=O)N(c1c(Cl)c(OC)cc(OC)c1Cl)C2` [Compound 124, (E)-3-(2,6-dichloro-3,5-dimethoxyphenyl)-7-(methylamino)-1-(1-(4-(piperidin-1-yl)but-2-enoyl)piperidin-4-yl)-3,4-dihydropyrimido[4,5-d]pyrimidin-2(1H)-one], for which the IC50 in series [1] was found to be 1.9 nM; in series [2], 0.8 nM; in series [3] it was 12 nM.
The corresponding values for `CNc1ncc2c(n1)N(Cc1cccc(NC(=O)/C=C/CN(C)C)c1)C(=O)N(c1c(Cl)c(OC)cc(OC)c1Cl)C2` [Compound 127, (E)-N-(3-((3-(2,6-dichloro-3,5-dimethoxyphenyl)-7-(methylamino)-2-oxo-3,4-dihydropyrimido[4,5-d]pyrimidin-1(2H)-yl)methyl)phenyl)-4-(dimethylamino)but-2-enamide] are 2.7 nM, 1 nM and 35 nM.
